This is an account of results in ChEMBL document CHEMBL4622831, “Anti-diabetic drugs recent approaches and advancements” (Bioorg Med Chem, 2020).

One data set has as its target Dipeptidyl peptidase 4 (Homo sapiens, UniProt P27487). The experiment in a line: Inhibition of recombinant human DPP4 using Gly-Pro-AMC as substrate preincubated for 10 mins followed by substrate addition.
A short description of data set [1]: Inhibition of Saccharomyces cerevisiae alpha-glucosidase using p-nitrophenyl glucopyranoside as substrate preincubated for 10 mins followed by substrate addition measured after 20 mins by spectrophotometric analysis.
A short description of data set [2]: Toxicity in mouse. The following applies: in vivo. It counts as organism-based.

Dipeptidyl peptidase 4, sequence (P27487 whole entry): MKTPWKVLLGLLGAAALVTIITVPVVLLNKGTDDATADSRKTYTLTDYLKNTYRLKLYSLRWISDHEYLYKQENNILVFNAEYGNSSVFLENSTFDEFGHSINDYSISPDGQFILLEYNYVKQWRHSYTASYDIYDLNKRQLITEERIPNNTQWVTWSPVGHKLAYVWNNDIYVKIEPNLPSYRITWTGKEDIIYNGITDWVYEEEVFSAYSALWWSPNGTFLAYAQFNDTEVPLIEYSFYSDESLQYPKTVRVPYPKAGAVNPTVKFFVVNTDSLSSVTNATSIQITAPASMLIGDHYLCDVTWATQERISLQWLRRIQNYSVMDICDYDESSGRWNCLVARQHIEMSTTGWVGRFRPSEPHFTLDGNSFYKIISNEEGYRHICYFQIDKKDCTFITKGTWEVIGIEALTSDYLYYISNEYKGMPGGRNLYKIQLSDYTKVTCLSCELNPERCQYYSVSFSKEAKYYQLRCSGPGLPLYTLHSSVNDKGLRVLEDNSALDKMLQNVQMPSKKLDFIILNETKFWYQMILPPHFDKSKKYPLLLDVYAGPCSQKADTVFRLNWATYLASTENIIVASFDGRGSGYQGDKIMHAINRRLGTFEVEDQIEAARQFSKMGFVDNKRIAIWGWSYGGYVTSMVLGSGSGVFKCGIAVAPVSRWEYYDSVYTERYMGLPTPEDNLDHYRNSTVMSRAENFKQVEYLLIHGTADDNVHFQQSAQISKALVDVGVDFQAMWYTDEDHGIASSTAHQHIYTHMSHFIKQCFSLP

Broadly, the IC50 is the midpoint of a concentration-inhibition curve. In the case of `CC#CCn1c(N2CCC[C@@H](N)C2)cc(=O)n(Cc2cn(CC(=O)N(C)C)nn2)c1=O`, the IC50 on Dipeptidyl peptidase 4 turned out to be 0.0286 µM.
As for `COc1ccc2c(c1)C(SCC(=O)NCc1ccc(C)cc1)c1ccc(Cl)cc1C2` (stereo not drawn), in data set [1], the IC50 is 80 µM.
Consider `N#C[C@@H]1CCCN1C(=O)CNC12CC3CC(CC(O)(C3)C1)C2` [VILDAGLIPTIN], for which, in data set [2], the MTD turned out to be 2000 mg/kg.
